Activity calls are given as the source filed them. No cut-off for these calls is given here.
What was measured:
[1] = molecular target: DNA topoisomerase 2-alpha (Homo sapiens) (UniProt P11388); assay: Inhibition of human Top2 assessed as decrease in intensity of decatenated DNA using catenated KDNA at 2 to 50 uM; settings: dose 2-50 µM
[2] = molecular target: T1, DNA topoisomerase II (Homo sapiens) (UniProt P11388+Q02880); assay: Inhibition of human Top2 assessed as decrease in enzyme mediated DNA cleavage at site A at 0.5 to 10 uM; assay type: protein assay; settings: dose 0.5-10 µM
[3] = molecular target: T1, DNA topoisomerase II (Homo sapiens); assay: Inhibition of human Top2 assessed as decrease in intensity of decatenated DNA using catenated KDNA at 0.5 to 10 uM; assay type: protein assay; settings: dose 0.5-10 µM
[4] = molecular target: T1, DNA topoisomerase II (Homo sapiens); assay: Inhibition of human Top2 assessed as decrease in enzyme mediated DNA cleavage at site A at low concentration; assay type: protein assay
[5] = molecular target: T1, DNA topoisomerase II (Homo sapiens); assay: Inhibition of human Top2 assessed as decrease in enzyme mediated DNA cleavage at site A at high concentration; assay type: protein assay

Chain of DNA topoisomerase 2-alpha (Homo sapiens) (P11388 whole entry): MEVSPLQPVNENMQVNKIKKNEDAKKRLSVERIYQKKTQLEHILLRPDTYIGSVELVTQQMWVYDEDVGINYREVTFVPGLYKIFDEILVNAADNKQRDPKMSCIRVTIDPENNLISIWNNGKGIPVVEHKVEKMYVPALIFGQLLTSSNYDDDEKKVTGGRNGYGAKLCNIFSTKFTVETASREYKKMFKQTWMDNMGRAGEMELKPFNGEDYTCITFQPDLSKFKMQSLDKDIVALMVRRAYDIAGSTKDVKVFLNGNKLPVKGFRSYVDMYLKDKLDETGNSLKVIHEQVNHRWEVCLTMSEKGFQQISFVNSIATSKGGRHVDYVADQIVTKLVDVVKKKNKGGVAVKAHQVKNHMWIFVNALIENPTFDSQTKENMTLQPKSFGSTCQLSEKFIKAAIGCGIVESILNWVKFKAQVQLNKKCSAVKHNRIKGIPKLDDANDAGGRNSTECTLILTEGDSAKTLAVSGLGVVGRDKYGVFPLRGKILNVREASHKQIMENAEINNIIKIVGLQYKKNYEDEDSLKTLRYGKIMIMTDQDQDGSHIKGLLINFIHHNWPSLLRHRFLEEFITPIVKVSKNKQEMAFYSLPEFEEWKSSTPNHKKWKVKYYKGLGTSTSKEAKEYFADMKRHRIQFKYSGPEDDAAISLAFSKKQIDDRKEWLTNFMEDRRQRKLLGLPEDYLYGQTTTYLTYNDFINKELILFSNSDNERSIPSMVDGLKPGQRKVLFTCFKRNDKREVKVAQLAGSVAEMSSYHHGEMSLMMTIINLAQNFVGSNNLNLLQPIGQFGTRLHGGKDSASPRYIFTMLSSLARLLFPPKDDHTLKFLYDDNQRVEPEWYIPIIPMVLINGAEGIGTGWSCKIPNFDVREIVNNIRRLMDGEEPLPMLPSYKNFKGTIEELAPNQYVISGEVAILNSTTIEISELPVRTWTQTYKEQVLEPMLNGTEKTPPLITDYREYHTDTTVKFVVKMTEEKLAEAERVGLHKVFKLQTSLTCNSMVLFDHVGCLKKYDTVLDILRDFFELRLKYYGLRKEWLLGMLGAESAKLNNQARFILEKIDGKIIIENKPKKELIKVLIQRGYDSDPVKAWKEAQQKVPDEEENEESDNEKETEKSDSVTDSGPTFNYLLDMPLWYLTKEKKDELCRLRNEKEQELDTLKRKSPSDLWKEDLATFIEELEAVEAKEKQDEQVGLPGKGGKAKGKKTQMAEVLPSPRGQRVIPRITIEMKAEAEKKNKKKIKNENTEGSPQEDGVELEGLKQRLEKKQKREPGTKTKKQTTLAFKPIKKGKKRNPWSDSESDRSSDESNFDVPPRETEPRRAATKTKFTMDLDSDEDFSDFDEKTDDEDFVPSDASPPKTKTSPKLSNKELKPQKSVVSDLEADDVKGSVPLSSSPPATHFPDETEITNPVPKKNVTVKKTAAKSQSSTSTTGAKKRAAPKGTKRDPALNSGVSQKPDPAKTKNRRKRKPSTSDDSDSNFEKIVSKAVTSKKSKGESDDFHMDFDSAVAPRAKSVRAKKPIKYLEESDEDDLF

`N[C@H]1CCN(c2c(F)cc3c(=O)c(C(=O)O)cn4c3c2Oc2cc3c(cc2-4)oc2ccccc23)C1` was tested, and the fold change (FC) [1] was 5 and the Activity [2] was “Active”.
`N[C@H]1CCN(c2c(F)cc3c(=O)c(C(=O)O)cn4c3c2Oc2ccccc2-4)C1` was tested, and the Activity [3] was “Active”, the Activity [4] was “Active” and the Activity [5] was “inactive”.

Source: ChEMBL document CHEMBL5223131, “A first-in-class clinical G-quadruplex-targeting drug. The bench-to-bedside translation of the fluoroquinolone QQ58 to CX-5461 (Pidnarulex)” (Bioorg Med Chem Lett, 2022)
